The source of these data is US9079876B2, “Imidazole derivatives and preparation method and use thereof” (Beijing Orbiepharm Co., Ltd., priority 2010, dated 2015).

Experiment [1] concerns the target T1, cyclooxygenase-1 (COX-1 enzyme) (Homo sapiens, UniProt P23219).
T1 construct: from tissue; host or cells: human whole blood without heparin (platelets) from healthy volunteers
Kind of experiment: Human whole blood in vitro activity assay, COX-1 (TXB2 by EIA). In kind it is cell-based. The note with it: read-out: IC50 (μg/mL) COX-1 (converted). The protocol: (§1) Human whole blood in vitro activity study: inhibition of activity of cyclooxygenase-1 (COX-1 enzyme) and cyclooxygenase-2 (COX-2 enzyme) in human blood. […] The blood samples were divided into two parts: one was used for detecting COX-1 enzyme activity, and the other was used for detecting COX-2 enzyme activity. The compounds were dissolved in DMSO, and were prepared in advance into 2 μL solutions in respective concentrations of 500, 50, 5, 0.5, 0.05, 0.005, 0.0005 μg/mL. 200 μL whole blood without heparin was added in the tubes containing the compounds, and then incubated at 37° C. for 1 hour. The activity of COX-1 enzyme was detected by determining the amount of thromboxane B2 (TXB2) synthesized by platelet using an EIA kit. Samples tested without the compounds were negative controls. For COX-2, 200 μL whole blood with heparin was added in the tubes containing the compounds and in the tubes containing 10 μg/mL LPS. LPS control and blank control with solvent only were used respectively for determining the maximum value and the background value of the PGE2 produced therefrom. The samples were incubated at 37° C. for 24 hours, and then centrifuged to collect serum/plasma, which was stored at −80° C. for detection by an EIA kit. The EIA kit of Cayman Company was used, the amounts of TXB2 and PGE2 were determined in accordance to the manufacturer's instructions, and the activities of COX-1 and COX-2 were tested respectively.

Experiment [2] deals with T2, cyclooxygenase-2 (COX-2 enzyme) (Homo sapiens, UniProt P35354).
T2 construct: from tissue; host or cells: heparinised human whole blood from healthy volunteers, stimulated with LPS
T2 sequence (P35354 18-604): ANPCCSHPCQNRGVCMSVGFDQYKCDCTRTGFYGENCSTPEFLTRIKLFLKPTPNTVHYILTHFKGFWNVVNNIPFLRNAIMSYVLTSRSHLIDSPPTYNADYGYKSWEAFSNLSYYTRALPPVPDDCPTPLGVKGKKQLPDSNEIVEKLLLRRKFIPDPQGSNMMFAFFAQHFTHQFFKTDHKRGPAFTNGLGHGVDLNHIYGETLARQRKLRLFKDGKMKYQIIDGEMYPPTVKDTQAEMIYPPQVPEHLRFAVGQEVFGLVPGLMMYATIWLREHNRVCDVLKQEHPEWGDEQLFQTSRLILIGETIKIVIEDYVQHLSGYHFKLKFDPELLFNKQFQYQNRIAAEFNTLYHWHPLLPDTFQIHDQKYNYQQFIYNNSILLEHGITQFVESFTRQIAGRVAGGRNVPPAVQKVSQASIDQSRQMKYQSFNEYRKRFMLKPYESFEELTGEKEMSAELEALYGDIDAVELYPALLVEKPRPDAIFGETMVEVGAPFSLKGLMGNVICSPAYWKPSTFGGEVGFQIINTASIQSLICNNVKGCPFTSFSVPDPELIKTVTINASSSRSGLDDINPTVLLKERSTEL
Description: Human whole blood in vitro activity assay, COX-2 (LPS-induced PGE2 by EIA). In kind it is cell-based. The note with it: for IC50: LPS, PGE2, read-out: IC50 (μg/mL) COX-2 (converted). The protocol:
as §1

Experiment [3] concerns rat paw swelling induced by carrageenan. Kind of experiment: Rat paw swelling induced by carrageenan (inflammation model). In kind it is in vivo, Wistar rats. The note with it: 14 mg/kg intragastric. The protocol: In vivo test: observation of the effect of compound 1 on rat paw swelling induced by carrageenan (inflammation model evaluation)
50 rats were randomized into 5 groups, with 10 animals in each group.
The total volume prepared for each dose group was determined based on the actual weight of the animals. A corresponding volume of purified water was taken, and was added with a sample of the test compounds or of the positive control, to allow homogenous dispersion. Sodium carboxymethyl cellulose was subsequently added, to make a homogenous suspension without obvious agglomerates.
Methods: 50 Wistar rats ([…], 167-199 g) were used in the study, with 25 males and 25 females. They were randomized into 5 groups, i.e. model group, positive control group, compound 1: low, middle and high dose groups. […] 1 hour after intragastric administration, 0.1 ml 1% carrageenan was intradermally injected in the right hind plantar paw to induce inflammation. After induction of inflammation, paw plantar volume and paw thickness were measured every another hour, consecutively for six times. Paw swelling rate (%) and inhibition rate (%) were calculated.
Assay methods: volume of the rat right paw was determined using UGO Basile plethysmograph, and the liquid level was kept constant for in the same animal in each measurement; thickness of the right hind paw were measured at the depiction line in the central paw with a digital vernier caliper.
The group mean and standard deviation of paw swelling rate in each group of animals were calculated, and then the following statistical analysis was performed. The test level was 0.05, and both statistical significance and biological significance were considered in the result analysis.
Levene's Test was used for homogeneity of variance test. Single-factor analysis of variance (ANOVA) was used for statistical analysis, if no statistical significance (P>0.05) was found. Dunnett's test (parametric method) analysis was used for multiple comparison analysis, if ANOVA found statistical significance (P≦0.05).
If there was heterogeneity of variance (P≦0.05), then the Kruskal-Wallis test was used. If the test result of Kruskal-Wallis test was statistically significant (P<0.05), then Dunnett's test (non-parametric method) was used for multiple comparison analysis.

Experiment [4] deals with mice tail suspension immobility time. Kind of experiment: Tail suspension test in mice (anti-depression model). It is filed as in vivo, Male Kunming mice. The note with it: 20 mg/kg intragastric, in s (unit assumed). The protocol: In Vivo Test: Tail Suspension Test in Mice (Evaluation on an Anti-Depression Model)
Male Kunming mice, approximately 20 g, were randomized into six groups, i.e. normal group, positive drug group (fluoxetine 20 mg/kg), compound 1: group A 5 mg/kg, group B 10 mg/kg, group C 20 mg/kg, and group D 40 mg/kg.
Single Dose Test: Mice were normally fed for 1 day and allowed to adapt to the environment. Then the mice were fasted (except water) for 16 hours, and were intragastrically administrated with a single dose of the compound. The normal group was intragastrically administrated with an equivalent amount of distilled water. 40 min after the administration, the mice were inverted and fixed to a tail suspension device, and the distance between the head and the desktop was about 30 cm. Immobility time was recorded with an analysis record system, for the latter 4 min within the 6 min recording period, and was used for statistical analysis.
(§2) Study with Three-Day Consecutive Dosing: Mice were normally fed for 1 day and allowed to adapt to the environment. Then the mice were intragastrically administrated with the test drug for 3 consecutive days (once per day), and the normal group was intragastrically administrated with an equivalent amount of distilled water. The mice were fasted (except water) for 16 hours before the last dosing. 40 min after the last dosing, the mice were inverted and fixed to the tail suspension device, and the distance between the head and the desktop was about 30 cm. Immobility time was recorded with an analysis record system, for the latter 4 min within the 6 min recording period, and was used for statistical analysis.
as §2, with “with Seven-Day” for “with Three-Day”, “intragastrically dosed” for “intragastrically administrated with the test drug”, “for 7” for “for 3”, “days (once/day),” for “days (once per day),”, “last administration.” for “last dosing.”, “last administration,” for “last dosing,”

Experiment [5] relates to mice forced swimming immobility time. Description: Forced swimming test in mice (anti-depression model). It is filed as in vivo, Male Kunming mice. The note with it: 20 mg/kg intragastric, in s (unit assumed). The protocol: In Vivo Study: The Forced Swimming Test in Mice (Evaluation on Anti-Depression Model)
Male Kunming mice, approximately 20 g, were randomized into six groups, i.e. normal group, positive drug group (fluoxetine 20 mg/kg), group A (5 mg/kg Compound 1), group B (10 mg/kg Compound 1), group C (20 mg/kg Compound 1), and group D (40 mg/kg Compound 1).
Single Dose Test: Mice were normally fed for 1 day and allowed to adapt to the environment. Then the mice were fasted (except water) for 16 hours, and were intragastrically administrated with a single dose of the test drug, and the normal group was intragastrically administrated with an equivalent amount of distilled water. 40 min after administration, the mice were placed in forced swimming test device (swimming environment: pool diameter 12.5 cm cylinder, water temperature 25° C. and water depth 10 cm). Mice swam for six minutes, and the immobility time (i.e., the time during which the limbs were immobile, or only the feet were thrashing or paddling) was recorded with an animal behavioral record system, for the latter 4 min within the 6 min recording period, and was used for statistical analysis.
(§3) Study with Three-Day Consecutive Dosing: Mice were normally fed for 1 day and allowed to adapt to the environment. Then the mice were intragastrically administrated with the test drug consecutively for three days (once per day). The normal group was intragastrically administrated equivalent amount of distilled water. Mice were fasted (except water) for 16 hours before the last dosing. 40 min after the last dosing, the mice were placed in forced swimming test device (swimming environment: pool diameter 12.5 cm cylinder, water temperature 25° C. and water depth 10 cm). Mice swam for six minutes, and the immobility time (i.e., the time during which the limbs were immobile, or only the feet were thrashing or paddling) was recorded with an animal behavioral record system, for the latter 4 min within the 6 min recording period, and was used for statistical analysis.
as §3, with “Seven-Day” for “Three-Day”, “seven” for “three”

Where [6] appears, read: 3 days consecutive administration.
[7] abbreviates: 7 days consecutive administration.
[8] abbreviates: single dose, 40 min after administration.

T1 sequence (P23219 24-599): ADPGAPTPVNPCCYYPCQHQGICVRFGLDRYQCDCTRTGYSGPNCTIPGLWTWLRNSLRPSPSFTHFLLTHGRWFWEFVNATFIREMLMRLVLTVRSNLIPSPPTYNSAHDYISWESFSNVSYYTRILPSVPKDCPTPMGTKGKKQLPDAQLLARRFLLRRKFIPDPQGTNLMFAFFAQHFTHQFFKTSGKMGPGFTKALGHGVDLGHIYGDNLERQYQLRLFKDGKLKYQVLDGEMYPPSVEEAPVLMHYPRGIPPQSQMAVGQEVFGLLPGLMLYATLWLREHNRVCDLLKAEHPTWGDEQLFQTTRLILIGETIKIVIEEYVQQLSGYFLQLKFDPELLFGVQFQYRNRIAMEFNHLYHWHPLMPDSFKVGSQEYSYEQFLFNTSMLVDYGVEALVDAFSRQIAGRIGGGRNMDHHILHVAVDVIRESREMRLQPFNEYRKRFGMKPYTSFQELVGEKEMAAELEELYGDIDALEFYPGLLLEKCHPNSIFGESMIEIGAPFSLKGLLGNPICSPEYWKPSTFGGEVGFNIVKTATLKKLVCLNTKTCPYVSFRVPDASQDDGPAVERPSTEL

Take `CS(=O)(=O)c1ccc(-n2cnc(Cl)c2-c2ccc(F)cc2)cn1` [Compound 12, 5-(4-chloro-5-(4-fluorophenyl)-1H-imidazol-1-yl)-2-(methylsulfonyl)pyridine]: the IC50 in experiment [1] is 209 µM. In addition, in experiment [2], the IC50COX-1/IC50COX-2 was 135.9 and the IC50 was 1.54 µM.

As to `CS(=O)(=O)c1ccc(-n2cnc(Cl)c2-c2cccnc2)nc1` [Compound 7, 2-(4-chloro-5-(pyridin-3-yl)-1H-imidazol-1-yl)-5-(methylsulfonyl)pyridine], the IC50 in experiment [1] is 54 µM. In experiment [2], the IC50COX-1/IC50COX-2 is 19.0 and the IC50 was 2.84 µM.

For `CS(=O)(=O)c1ccc(-n2cncc2-c2ccccc2)cn1` [Compound 8E, 2-(methylsulfonyl)-5-(5-phenyl-1H-imidazol-1-yl)pyridine], the IC50 in experiment [1] was 187 µM; in experiment [2], above 1670 µM.

As to `COc1ccc(-c2c(Cl)ncn2-c2ccc(S(C)(=O)=O)nc2)cc1F` [Compound 10, 5-(4-chloro-5-(3-fluoro-4-methoxyphenyl)-1H-imidazol-1-yl)-2-(methylsulfonyl)pyridine], the IC50 in experiment [1] was 185 µM. Also, in experiment [2], the IC50COX-1/IC50COX-2 is recorded as 58.8 and the IC50 is 3.14 µM.

On to `Cc1ccc(-c2cc(C(F)(F)F)nn2-c2ccc(S(N)(=O)=O)cc2)cc1` [Celecoxib, reference compound], for which the “inhibition rate of plantar paw thickness swelling” value was found to be 30.02% in experiment [3] (1 h after inflammation); 60.28% in experiment [3] (2 h after inflammation); 73.09% in experiment [3] (3 h after inflammation); 80.52% in experiment [3] (4 h after inflammation); 82.31% in experiment [3] (5 h after inflammation); 82.40% in experiment [3] (6 h after inflammation). In addition, the “inhibition rate of plantar paw volume swelling” value came to 0.26% in experiment [3] (1 h after inflammation); 38.81% in experiment [3] (2 h after inflammation); 66.24% in experiment [3] (3 h after inflammation); 64.29% in experiment [3] (4 h after inflammation); 56.44% in experiment [3] (5 h after inflammation); 57.00% in experiment [3] (6 h after inflammation). For the same compound, the “plantar paw thickness swelling rate” value in experiment [3] (1 h after inflammation) came out at 7.69 ± 3.31%; in experiment [3] (2 h after inflammation), 6.30 ± 2.55 %; in experiment [3] (3 h after inflammation) it was 4.64 ± 1.99 %; in experiment [3] (4 h after inflammation), 3.71 ± 2.58 %; in experiment [3] (5 h after inflammation) it was 3.34 ± 2.56 %; in experiment [3] (6 h after inflammation) it was 2.72 ± 2.51 %. Moreover, the “plantar paw volume swelling rate” value in experiment [3] (1 h after inflammation) stood at 10.87 ± 6.32%; in experiment [3] (2 h after inflammation), 10.71 ± 6.01 %; in experiment [3] (3 h after inflammation), 7.16 ± 5.15 %; in experiment [3] (4 h after inflammation), 9.68 ± 6.13 %; in experiment [3] (5 h after inflammation), 12.22 ± 6.90 %; in experiment [3] (6 h after inflammation), 11.91 ± 5.41 %.

Turning to `CNCCC(Oc1ccc(C(F)(F)F)cc1)c1ccccc1` (centres unmarked) [fluoxetine, reference compound], the “tail suspension Immobility time” value in experiment [4] (setting [6]) amounted to 33.95 ± 10.50; in experiment [4] (setting [7]), 33.76 ± 10.47; in experiment [4] (setting [8]), 43.52 ± 20.21. For the same compound, the “forced swimming Immobility time” value was found to be 82.42 ± 32.07 in experiment [5] (setting [6]), 90.94 ± 31.73 in experiment [5] (setting [7]) and 105.04 ± 37.98 in experiment [5] (setting [8]).
